Source: patent US5519057A, “Ibuprofen-containing medicament” (priority 1986, dated 1996)

Columns and labels:
[1] = human, oral
[2] = metabolites excreted in the urine; cited from earlier work
[3] = tested on: afferent nerves of the feet of female Rhesus monkeys; assay: Analgesia test: threshold voltage for stimulus response on electrical stimulation of the feet of female Rhesus monkeys; assay type: in vivo, Rhesus monkeys (macaca mulatta); conditions: for Median percentage change in the threshold voltage: ibuprofen forms 50 mg/kg, acetylsalicylic acid 100 mg/kg; for analgetic effect (in words) / change in the threshold voltage (in words) / increase of the threshold voltage / time to achieve the increase of threshold voltage: 50 mg/kg ibuprofen form
Procedure: In this test the afferent nerves of the feet of female Rhesus monkeys were electrically stimulated. For the test four adult female Rhesus monkeys (macaca mulatta) were used.
The monkeys were trained in such a way that they sat in chairs wearing an aluminium foil shoe during the test.
On the days when the test was carried out the monkeys were sat in these stools. One foot of each monkey was smeared with electrode gel and the aluminium shoe was fitted over it.
A Grass-stimulator (S 88) was connected to the monkeys via a multiple-way switch (the positive lead was connected to the aluminium shoe, the negative lead to the chair). An electrical stimulation, each time of 2 seconds duration with a frequency of 60 Hz was applied (the magnitude of stimulation was altered by adjusting the voltage supplied to the stimulator; the corresponding current was measured by means of an ammeter connected in series).
The stimulus required to achieve a stimulus threshold was determined. For this purpose the voltage was raised stepwise. The threshold voltage was taken as the lowest voltage at which bending of the toes or twisting of the foot occurred.
Before application of the medicament the animals were allowed to acclimatize for at least one hour. During this period the threshold voltage was determined at 10 minute intervals until steady readings were obtained.
Following the acclimatization period the carrier material or the active ingredient were orally administered. The threshold voltage required to effect a stimulus response in the foot of each monkey was determined at 30 minute intervals for 3 hours and then after 4 and 5 hours after administration of the active ingredient.
The observer and the stimulation apparatus were concealed behind a one-way mirror.
Between the individual tests there was an interval of at least one week.
The active ingredients 1 to 4 were prepared for oral administration by suspending them in 1.0% w/v Tragacanth. The medicaments were prepared directly before use and administered in a dose of 4 ml/kg.

[4] = tested on: humans; conditions: cited from earlier work
[5] = tested on: prostaglandin synthesis; conditions: animals with inflammation; cited from earlier work
[6] = tested on: humans; assay: Analgetic activity in humans; assay type: in vivo; conditions: no data given
[7] = 0,5 h after oral administration
[8] = 1,0 h after oral administration, *P < 0,05 vs carrier (Mann-Whitney U) over (+)-S-Ibuprofen and acetylsalicylic acid
[9] = 1,5 h after oral administration, *P < 0,05 vs carrier (Mann-Whitney U) over (+)-S-Ibuprofen
[10] = 2,0 h after oral administration
[11] = 2,5 h after oral administration
[12] = 3,0 h after oral administration
[13] = 4,0 h after oral administration
[14] = 5,0 h after oral administration
[15] = oral, 100 mg/kg acetylsalicylic acid

In the case of `CC(C)Cc1ccc([C@@H](C)C(=O)O)cc1` [(R)-(-)-ibuprofen], the “late plasma levels as % of the maximum level” value ([1]; after the first 4 to 6 hours) is given as “less than 10%”, the “plasma levels relative to those after administration of the (S)-(+)-form” value ([1]; only after the first 4 to 6 hours) is given as “equally high or higher levels” and the “conversion to the active (S)-(+)-enantiomer in vivo” value [2] is given as “converted to the active (S)-(+)-enantiomer in vivo”. For the same molecule, the “Median percentage change in the threshold voltage” value (shortened to “Median percentage change”) [3, 7] was -5,7%, the “Median percentage change” value [3, 8] was “+4,0%” and the “Median percentage change” value [3, 9] was “+4,5%”. For the same molecule, the “Median percentage change” value [3, 10] was “+0,5%”, the “Median percentage change” value [3, 11] was -4,7% and the “Median percentage change” value [3, 12] was -7,0%. For the same molecule, the “Median percentage change” value [3, 13] was -2,3%, the “Median percentage change” value [3, 14] was -3,4% and the “analgetic effect (in words)” value ([3]; oral) was “inactive”. The “change in the threshold voltage (in words)” value (from here on “change … (in words)”) ([3]; oral) was “no significant change in the threshold voltage”.
For `CC(C)Cc1ccc(C(C)C(=O)O)cc1` (racemic) [(±)-ibuprofen, 2-(4-Isobutylphenyl)-propionic acid], the “known period of action” value ([4]; human) is given as “ca. 6 hours”, the side effects ([4]; in vivo) is given as “usual unwanted side effects of NSAR” and the “therapeutic effect in humans” value ([4]; therapy of humans) is given as “reduces pain, swelling and fever caused by inflammation”. The “inhibition of prostaglandin synthesis” value [5] was “effective in inhibiting prostaglandin synthesis”, the “Median percentage change” value [3, 7] was “+6,4%” and the “Median percentage change” value [3, 8] was “+8,4%”. For the same molecule, the “Median percentage change” value [3, 9] was “+15,7%”, the “Median percentage change” value [3, 10] was “+15,7%” and the “Median percentage change” value [3, 11] was “+8,5%”. The “Median percentage change” value [3, 12] was “+18,1%”, the “Median percentage change” value [3, 13] was “+9,7%” and the “Median percentage change” value [3, 14] was “+17,0%”. For the same molecule, the “change … (in words)” value ([3]; oral) was “the level remained during the rest of the test period”, the “increase of the threshold voltage” value ([3]; oral) was “approximately 15%” and the “time to achieve the increase of threshold voltage” value ([3]; oral) was no more than 90 min. The “analgetic effect (in words)” value ([3]; oral, listed as ibuprofen racemate, 50 mg/kg) was “analgetic activity was assumed”, the “analgetic effect (in words)” value ([3]; oral, listed as racemate, 50 mg/kg) was “weak but long-lasting analgetic effect” and the “difference between the median change between ibuprofen racemate and carrier” value ([3]; oral, 50 mg/kg, every time after 90 minutes with the exception of 150 minutes) was “more than 20%”.
With `CC(=O)Oc1ccccc1C(=O)O` [Acetylsalicylic acid] the “Median percentage change” value [3, 7] was “+35,8%”, the “Median percentage change” value [3, 8] was “+56,6%” and the “Median percentage change” value [3, 9] was “+41,4%”. For the same molecule, the “Median percentage change” value [3, 10] was “+80,4%”, the “Median percentage change” value [3, 11] was “+74,6%” and the “Median percentage change” value [3, 12] was “+72,8%”. The “Median percentage change” value [3, 13] was “+66,1%”, the “Median percentage change” value [3, 14] was “+59,8%” and the “increase of the threshold voltage required for a stimulus response” value [3, 15] was roughly 80%. For the same molecule, the “time to achieve the level of analgesia” value [3, 15] was no more than 2 h and the “threshold voltage increase remaining throughout the duration of the test” value ([3]; oral, 100 mg/kg acetylsalicylic acid, after level achieved, up to 5 h) was “above 60%”.
For `CC(C)Cc1ccc([C@H](C)C(=O)O)cc1` [(S)-(+)-ibuprofen], the “reduced dose requirement versus racemate shown in humans” value [6] was “could also be shown in humans”, the “Median percentage change” value [3, 7] was “+9,5%” and the “Median percentage change” value [3, 8] was “+33,5%”. The “Median percentage change” value [3, 9] was “+51,2%”, the “Median percentage change” value [3, 10] was “+53,9%” and the “Median percentage change” value [3, 11] was “+45,5%”. For the same molecule, the “Median percentage change” value [3, 12] was “+42,3%”, the “Median percentage change” value [3, 13] was “+33,7%” and the “Median percentage change” value [3, 14] was “+38,2%”. For the same molecule, the “amount of (S)-(+)-ibuprofen required relative to racemic ibuprofen to give a given analgetic activity” value ([3]; analgesia tests on monkeys) was “less than half as much”, the “analgetic effect (in words)” value ([3]; oral) was “notable analgesic effect which was maintained for several hours” and the “change … (in words)” value ([3]; oral) was “the threshold voltage remained elevated during the rest of the test period”. The “increase of the threshold voltage” value ([3]; oral) was roughly 50% and the “time to achieve the increase of threshold voltage” value ([3]; oral) was 90 min.
